{
  "source": "patent US20200054608A1",
  "about": "“ALPHA ADRENERGIC AGONISTS FOR THE TREATMENT OF TISSUE TRAUMA” (Allergan, Inc., priority 2013, published 2020)",
  "key": {"SKH1 hairless mice [1]": {"system": "SKH1 hairless mice", "experiment": "UVB-induced sunburn model: erythema on back skin measured with a chromameter", "format": "in vivo", "description": "(§1) A xenon arc lamp (Newport Corp, USA) was used as a source of UVB. SKH1 hairless mice, lying on their stomachs with their left sides covered, were exposed to 120 mJ/cm2 UVB radiation. Regions of back skin were treated topically with oxymetazoline hydrochloride 0.5% gel at 20 min, 4 hr or 8 hr post-UVB. An additional group had the vehicle applied topically at 20 min post UVB exposure. Erythema on the exposed and unexposed back was measured using a chromameter (Konica Minolta) at 2 and 4 hr post-UVB exposure. Skin samples were collected 48 hr following UVB exposure and examined histologically to assess the extent of injury."}, "SKH1 hairless mice [2]": {"system": "SKH1 hairless mice", "experiment": "UVB-induced sunburn model: histological examination of skin samples 48 hr following UVB exposure", "format": "in vivo", "settings": "for outcome of healing (overall healing, histology) / mice with overall epidermal healing fair to good: 48 hr; for outcome of healing (overall healing, histology): hydrochloride; for mice with overall epidermal healing fair to good: vehicle 0%", "description": "as §1"}},
  "data": [
    {"substance": "oxymetazoline hydrochloride", "values": [
      {"measurement": "inhibition of erythema", "setting": "SKH1 hairless mice [1]; 0.5% topical gel applied 20 minutes following 120 mJ/cm2 UVB, 2 hr timepoint, p<0.001", "value": "almost completely inhibited the erythema"},
      {"measurement": "inhibition of erythema", "setting": "SKH1 hairless mice [1]; 0.5% topical gel applied 20 minutes following UVB, 4 hr post-UVB exposure", "value": "no inhibition of the erythema"},
      {"measurement": "epidermal separation", "setting": "SKH1 hairless mice [2]; 0.5% topical applied 20 minutes post UVB, 48 hours, n=6", "value": "reduced the occurrence and/or severity of epidermal separation"},
      {"measurement": "outcome of healing (overall healing, histology)", "setting": "SKH1 hairless mice [2]; 0.5% topical applied 20 minutes post UVB, vs vehicle controls", "value": "potentially improved the outcome"},
      {"measurement": "outcome of healing (overall healing, histology)", "setting": "SKH1 hairless mice [2]; 0.5% topical applied 20 minutes post UVB, vs vehicle controls, listed as oxymetazoline", "value": "slightly improved the outcome of healing"},
      {"measurement": "epidermal separation", "setting": "SKH1 hairless mice [2]; 0.5% topical applied 4 hours post UVB, 48 hours, n=6", "value": "reduced the occurrence and/or severity of epidermal separation"},
      {"measurement": "outcome of healing (overall healing, histology)", "setting": "SKH1 hairless mice [2]; 0.5% topical applied 4 hours post UVB, vs concurrent and historical vehicle controls", "value": "more positive outcome"},
      {"measurement": "outcome of healing (overall healing, histology)", "setting": "SKH1 hairless mice [2]; 0.5% topical applied 4 hours post UVB, vs concurrent and historical vehicle controls, listed as oxymetazoline", "value": "improved the outcome of healing"},
      {"measurement": "adaptive response in histological sections (epidermal proliferation, adaptive hyperplasia)", "setting": "SKH1 hairless mice [2]; 0.5% topical applied 8 hours following injury, skin collected at 48 hours, vs vehicle-treated", "value": "greater degree of a positive adaptive response"},
      {"measurement": "epidermal hyperplasia (adaptive healing response)", "setting": "SKH1 hairless mice [2]; 0.5% topical applied 8 hours following the injury, 48 hours, n=6", "value": "resulted in more individuals who had progressed to advanced healing"},
      {"measurement": "epidermal separation", "setting": "SKH1 hairless mice [2]; 0.5% topical applied 8 hours post UVB, 48 hours, n=6", "value": "reduced the occurrence and/or severity of epidermal separation"},
      {"measurement": "outcome of healing (overall healing, histology)", "setting": "SKH1 hairless mice [2]; 0.5% topical applied 8 hours post UVB, vs concurrent and historical vehicle controls", "value": "more positive outcome"},
      {"measurement": "outcome of healing (overall healing, histology)", "setting": "SKH1 hairless mice [2]; 0.5% topical applied 8 hours post UVB, vs concurrent and historical vehicle controls, listed as oxymetazoline", "value": "improved the outcome of healing"},
      {"measurement": "mice with overall epidermal healing fair to good", "setting": "SKH1 hairless mice [2]; 0.5% topical applied at 20 minutes post UVB, n=6", "value": 33, "unit": "%"},
      {"measurement": "mice with overall epidermal healing fair to good", "setting": "SKH1 hairless mice [2]; 0.5% topical applied at 4 hours post UVB, n=6", "value": 50, "unit": "%"},
      {"measurement": "mice with overall epidermal healing fair to good", "setting": "SKH1 hairless mice [2]; 0.5% topical applied at 8 hours post UVB, n=6", "value": 67, "unit": "%"}
    ]}
  ]
}
